Test results published in ChEMBL document CHEMBL1141535, “Benzothiazole based inhibitors of p38alpha MAP kinase” (Bioorg Med Chem Lett, 2008).

Key:
[1] = molecular target: Mitogen-activated protein kinase 14 (Homo sapiens, UniProt Q16539); experiment: Inhibition of p38alpha
PBMC = experiment: Inhibition of LPS-induced TNFalpha production in human PBMC; assay type: functional, cell-based
[2] = molecular target: Fibroblast growth factor receptor 2 (Homo sapiens) (UniProt P21802); experiment: Inhibition of FGFR2 at 10 uM
[3] = Clearance in Sprague-Dawley rat at 2 mg/kg, iv; assay type: ADME, organism-based; parameters: dose 2 mg/kg, route intravenous; details: in vivo
[4] = molecular target: MAP kinase-activated protein kinase 2 (Homo sapiens) (UniProt P49137); experiment: Inhibition of MAPKAP-K2 at 10 uM
[5] = molecular target: Tyrosine-protein kinase Lck (Homo sapiens) (UniProt P06239); experiment: Inhibition of Lck at 10 uM
[6] = molecular target: MAP kinase-activated protein kinase 5 (Homo sapiens) (UniProt Q8IW41); experiment: Inhibition of MAPKAP-K5 at 10 uM
[7] = molecular target: Tyrosine-protein kinase Fyn (Homo sapiens) (UniProt P06241); experiment: Inhibition of Fyn at 10 uM
[8] = molecular target: Tyrosine-protein kinase ABL1 (Homo sapiens) (UniProt P00519); experiment: Inhibition of Abl at 10 uM
[9] = molecular target: Proto-oncogene tyrosine-protein kinase Src (Homo sapiens) (UniProt P12931); experiment: Inhibition of Src at 10 uM
[10] = molecular target: Tyrosine-protein kinase BTK (Homo sapiens) (UniProt Q06187); experiment: Inhibition of Btk at 10 uM
[11] = molecular target: Tyrosine-protein kinase Lyn (Homo sapiens) (UniProt P07948); experiment: Inhibition of Lyn B at 10 uM
[12] = molecular target: Calcium/calmodulin-dependent protein kinase type II subunit alpha (Homo sapiens) (UniProt Q9UQM7); experiment: Inhibition of CaMK2-alpha at 10 uM
[13] = molecular target: Megakaryocyte-associated tyrosine-protein kinase (Homo sapiens) (UniProt P42679); experiment: Inhibition of Hyl at 10 uM
[14] = molecular target: Serine/threonine-protein kinase Chk1 (Homo sapiens) (UniProt O14757); experiment: Inhibition of CHK1 at 10 uM
[15] = Inhibition of PKA at 10 uM
[16] = molecular target: Tyrosine-protein kinase Blk (Homo sapiens) (UniProt P51451); experiment: Inhibition of Blk at 10 uM
[17] = molecular target: Mitogen-activated protein kinase 3 (Homo sapiens) (UniProt P27361); experiment: Inhibition of ERK1 at 10 uM
[18] = molecular target: Interleukin-1 receptor-associated kinase 4 (Homo sapiens) (UniProt Q9NWZ3); experiment: Inhibition of IRAK4 at 10 uM
[19] = molecular target: Tyrosine-protein kinase Fes/Fps (Homo sapiens) (UniProt P07332); experiment: Inhibition of FES at 10 uM
[20] = molecular target: Tyrosine-protein kinase Lyn (Homo sapiens) (UniProt P07948); experiment: Inhibition of Lyn A at 10 uM
[21] = molecular target: Tyrosine-protein kinase CSK (Homo sapiens) (UniProt P41240); experiment: Inhibition of Csk at 10 uM
[22] = molecular target: Ephrin type-A receptor 3 (Homo sapiens) (UniProt P29320); experiment: Inhibition of EphA3 at 10 uM
[23] = molecular target: Tyrosine-protein kinase HCK (Homo sapiens) (UniProt P08631); experiment: Inhibition of Hck at 10 uM
[24] = molecular target: Fibroblast growth factor receptor 4 (Homo sapiens) (UniProt P22455); experiment: Inhibition of FGFR4 at 10 uM
[25] = molecular target: Fibroblast growth factor receptor 3 (Homo sapiens) (UniProt P22607); experiment: Inhibition of FGFR3 at 10 uM
[26] = molecular target: Glycogen synthase kinase-3 beta (Homo sapiens) (UniProt P49841); experiment: Inhibition of GSK3-beta at 10 uM
[27] = molecular target: Ribosomal protein S6 kinase alpha-3 (Homo sapiens) (UniProt P51812); experiment: Inhibition of RSK2 at 10 uM
[28] = molecular target: Tyrosine-protein kinase Yes (Homo sapiens) (UniProt P07947); experiment: Inhibition of Yes at 10 uM
[29] = molecular target: Protein-tyrosine kinase 6 (Homo sapiens) (UniProt Q13882); experiment: Inhibition of Brk at 10 uM
[30] = molecular target: Casein kinase II subunit alpha (Homo sapiens) (UniProt P68400); experiment: Inhibition of CK2-alpha-1 at 10 uM
[31] = molecular target: Mitogen-activated protein kinase 1 (Homo sapiens) (UniProt P28482); experiment: Inhibition of ERK2 at 10 uM
[32] = molecular target: Protein kinase C alpha type (Homo sapiens) (UniProt P17252); experiment: Inhibition of PKCalpha at 10 uM
[33] = molecular target: Epidermal growth factor receptor (Homo sapiens) (UniProt P00533); experiment: Inhibition of EGFR at 10 uM
[34] = molecular target: Receptor-type tyrosine-protein kinase FLT3 (Homo sapiens) (UniProt P36888); experiment: Inhibition of Flt3 at 10 uM
[35] = molecular target: Protein kinase C beta type (Homo sapiens) (UniProt P05771); experiment: Inhibition of PKC-beta-2 at 10 uM
[36] = molecular target: Protein kinase C gamma type (Homo sapiens) (UniProt P05129); experiment: Inhibition of PKCgamma at 10 uM
[37] = molecular target: Tyrosine-protein kinase Fgr (Homo sapiens) (UniProt P09769); experiment: Inhibition of Fgr at 10 uM
[38] = molecular target: Fibroblast growth factor receptor 1 (Homo sapiens) (UniProt P11362); experiment: Inhibition of FGFR1 at 10 uM
[39] = molecular target: Hepatocyte growth factor receptor (Homo sapiens) (UniProt P08581); experiment: Inhibition of cMET at 10 uM
[40] = molecular target: Protein kinase C delta type (Homo sapiens) (UniProt Q05655); experiment: Inhibition of PKCdelta at 10 uM
[41] = molecular target: Glycogen synthase kinase-3 alpha (Homo sapiens) (UniProt P49840); experiment: Inhibition of GSK3-alpha at 10 uM
[42] = molecular target: Serine/threonine-protein kinase Nek2 (Homo sapiens) (UniProt P51955); experiment: Inhibition of NEK2 at 10 uM
[43] = molecular target: Platelet-derived growth factor receptor beta (Homo sapiens) (UniProt P09619); experiment: Inhibition of PDGFRbeta at 10 uM
[44] = molecular target: RAC-gamma serine/threonine-protein kinase (Homo sapiens) (UniProt Q9Y243); experiment: Inhibition of Atk3 at 10 uM
[45] = molecular target: MAP kinase-activated protein kinase 3 (Homo sapiens) (UniProt Q16644); experiment: Inhibition of MAPKAP-K3 at 10 uM
[46] = molecular target: RAC-alpha serine/threonine-protein kinase (Homo sapiens) (UniProt P31749); experiment: Inhibition of Atk1 at 10 uM
[47] = molecular target: Phosphorylase b kinase gamma catalytic chain, liver/testis isoform (Homo sapiens) (UniProt P15735); experiment: Inhibition of PHKG2 at 10 uM
[48] = Half life in Sprague-Dawley rat at 2 mg/kg, iv; assay type: ADME, organism-based; parameters: dose 2 mg/kg, route intravenous; details: in vivo
[49] = molecular target: Cytoplasmic tyrosine-protein kinase BMX (Homo sapiens) (UniProt P51813); experiment: Inhibition of Bmx at 10 uM
[50] = molecular target: RAC-beta serine/threonine-protein kinase (Homo sapiens) (UniProt P31751); experiment: Inhibition of Atk2 at 10 uM
[51] = molecular target: Insulin-like growth factor 1 receptor (Homo sapiens) (UniProt P08069); experiment: Inhibition of IGF1R at 10 uM
[52] = AUC in Sprague-Dawley rat at 5 mg/kg, po; assay type: ADME, organism-based; parameters: dose 5 mg/kg, route oral; details: plasma
[53] = Bioavailability in Sprague-Dawley rat at 5 mg/kg, po; assay type: ADME, organism-based; details: in vivo
[54] = molecular target: Ephrin type-B receptor 4 (Homo sapiens) (UniProt P54760); experiment: Inhibition of EphB4 at 10 uM
[55] = molecular target: Serine/threonine-protein kinase Chk2 (Homo sapiens) (UniProt O96017); experiment: Inhibition of CHK2 at 10 uM
[56] = molecular target: Protein kinase C beta type (Homo sapiens) (UniProt P05771); experiment: Inhibition of PKCbeta1 at 10 uM

Sequence of Mitogen-activated protein kinase 14 (Q16539 whole entry): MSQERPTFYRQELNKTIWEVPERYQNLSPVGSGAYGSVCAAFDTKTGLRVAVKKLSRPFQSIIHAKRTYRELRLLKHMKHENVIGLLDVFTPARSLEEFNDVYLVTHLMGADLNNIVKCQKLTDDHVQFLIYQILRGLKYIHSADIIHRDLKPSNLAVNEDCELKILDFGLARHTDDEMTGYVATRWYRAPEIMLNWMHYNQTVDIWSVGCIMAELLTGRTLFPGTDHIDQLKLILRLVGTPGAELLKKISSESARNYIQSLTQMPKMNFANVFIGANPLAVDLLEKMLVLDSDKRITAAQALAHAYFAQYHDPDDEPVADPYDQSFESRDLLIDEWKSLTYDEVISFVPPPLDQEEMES
Sequence of Protein kinase C beta type (Homo sapiens) (P05771 2-671 limits assumed): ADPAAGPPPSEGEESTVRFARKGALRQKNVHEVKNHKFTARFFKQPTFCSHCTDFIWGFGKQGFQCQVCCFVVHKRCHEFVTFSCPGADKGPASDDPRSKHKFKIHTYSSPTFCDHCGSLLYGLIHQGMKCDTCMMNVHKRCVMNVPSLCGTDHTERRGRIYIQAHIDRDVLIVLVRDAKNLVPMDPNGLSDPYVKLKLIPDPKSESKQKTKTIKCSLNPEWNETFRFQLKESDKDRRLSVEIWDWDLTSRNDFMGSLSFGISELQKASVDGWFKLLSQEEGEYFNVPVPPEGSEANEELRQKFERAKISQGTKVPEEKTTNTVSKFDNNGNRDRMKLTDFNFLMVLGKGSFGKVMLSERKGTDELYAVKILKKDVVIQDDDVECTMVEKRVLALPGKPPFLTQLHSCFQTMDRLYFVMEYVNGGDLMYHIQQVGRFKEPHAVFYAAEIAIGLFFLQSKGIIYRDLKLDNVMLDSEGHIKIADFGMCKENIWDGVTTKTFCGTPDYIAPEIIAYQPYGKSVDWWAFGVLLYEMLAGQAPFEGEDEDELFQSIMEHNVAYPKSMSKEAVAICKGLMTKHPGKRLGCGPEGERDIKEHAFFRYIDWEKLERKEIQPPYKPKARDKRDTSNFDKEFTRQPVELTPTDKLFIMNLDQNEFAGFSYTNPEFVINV
Sequence of Tyrosine-protein kinase Lyn (Homo sapiens) (P07948 2-512 limits assumed): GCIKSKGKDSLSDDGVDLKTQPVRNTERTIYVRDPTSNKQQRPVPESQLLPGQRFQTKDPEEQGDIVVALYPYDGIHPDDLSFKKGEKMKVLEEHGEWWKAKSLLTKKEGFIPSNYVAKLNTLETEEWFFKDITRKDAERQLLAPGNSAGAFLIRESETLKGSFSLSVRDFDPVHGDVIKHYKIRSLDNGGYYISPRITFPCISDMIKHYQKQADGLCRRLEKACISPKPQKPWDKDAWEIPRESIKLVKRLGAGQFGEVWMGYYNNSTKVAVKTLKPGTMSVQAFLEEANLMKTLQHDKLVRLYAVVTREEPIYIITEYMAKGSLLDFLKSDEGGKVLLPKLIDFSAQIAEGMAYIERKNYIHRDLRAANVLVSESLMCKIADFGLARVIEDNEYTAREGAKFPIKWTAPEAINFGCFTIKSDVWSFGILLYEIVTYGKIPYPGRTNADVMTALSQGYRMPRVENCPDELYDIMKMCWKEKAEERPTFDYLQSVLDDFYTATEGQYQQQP
Sequence of Epidermal growth factor receptor (Homo sapiens) (P00533 whole entry): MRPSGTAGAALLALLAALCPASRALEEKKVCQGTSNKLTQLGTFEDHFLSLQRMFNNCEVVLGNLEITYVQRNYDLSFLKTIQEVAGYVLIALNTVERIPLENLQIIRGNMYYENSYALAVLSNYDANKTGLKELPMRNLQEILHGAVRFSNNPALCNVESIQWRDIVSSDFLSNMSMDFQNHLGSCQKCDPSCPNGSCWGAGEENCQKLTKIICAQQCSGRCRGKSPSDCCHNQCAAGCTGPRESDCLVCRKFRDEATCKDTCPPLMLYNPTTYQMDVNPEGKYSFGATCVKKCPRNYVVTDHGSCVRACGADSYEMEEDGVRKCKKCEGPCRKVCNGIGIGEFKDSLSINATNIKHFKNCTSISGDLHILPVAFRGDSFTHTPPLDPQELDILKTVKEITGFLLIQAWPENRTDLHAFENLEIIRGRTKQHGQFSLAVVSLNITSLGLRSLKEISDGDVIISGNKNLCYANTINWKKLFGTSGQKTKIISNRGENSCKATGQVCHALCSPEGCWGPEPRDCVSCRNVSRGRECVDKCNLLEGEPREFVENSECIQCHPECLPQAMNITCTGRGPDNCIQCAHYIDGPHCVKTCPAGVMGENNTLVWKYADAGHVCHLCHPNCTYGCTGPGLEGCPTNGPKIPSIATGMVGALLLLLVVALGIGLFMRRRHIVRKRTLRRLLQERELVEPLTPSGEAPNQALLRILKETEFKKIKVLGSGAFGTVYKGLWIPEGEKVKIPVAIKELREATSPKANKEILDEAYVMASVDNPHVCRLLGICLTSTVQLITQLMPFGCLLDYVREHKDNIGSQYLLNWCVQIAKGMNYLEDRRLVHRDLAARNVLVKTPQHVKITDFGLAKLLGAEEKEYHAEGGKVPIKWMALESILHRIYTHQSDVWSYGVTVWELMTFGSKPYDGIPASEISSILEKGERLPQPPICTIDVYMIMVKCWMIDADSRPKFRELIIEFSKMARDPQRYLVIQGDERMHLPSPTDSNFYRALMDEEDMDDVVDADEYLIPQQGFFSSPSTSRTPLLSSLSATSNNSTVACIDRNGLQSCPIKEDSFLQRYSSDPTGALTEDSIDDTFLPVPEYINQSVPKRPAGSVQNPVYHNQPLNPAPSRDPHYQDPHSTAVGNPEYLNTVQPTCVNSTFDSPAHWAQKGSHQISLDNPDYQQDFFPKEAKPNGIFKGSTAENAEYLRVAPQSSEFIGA
Sequence of Protein-tyrosine kinase 6 (Homo sapiens) (Q13882 whole entry, looked up): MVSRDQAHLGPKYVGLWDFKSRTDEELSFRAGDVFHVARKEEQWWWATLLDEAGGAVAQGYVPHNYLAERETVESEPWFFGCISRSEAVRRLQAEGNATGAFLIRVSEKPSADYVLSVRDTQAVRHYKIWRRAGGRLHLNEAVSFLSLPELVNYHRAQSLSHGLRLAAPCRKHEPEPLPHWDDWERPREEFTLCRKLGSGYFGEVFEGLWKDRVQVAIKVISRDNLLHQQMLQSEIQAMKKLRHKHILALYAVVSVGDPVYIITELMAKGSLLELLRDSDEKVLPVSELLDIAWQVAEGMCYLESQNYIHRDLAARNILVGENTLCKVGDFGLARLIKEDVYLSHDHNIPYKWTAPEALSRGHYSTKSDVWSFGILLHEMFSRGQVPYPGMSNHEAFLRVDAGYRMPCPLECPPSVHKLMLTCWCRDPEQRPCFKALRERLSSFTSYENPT
Sequence of Glycogen synthase kinase-3 beta (Homo sapiens) (P49841 whole entry, looked up): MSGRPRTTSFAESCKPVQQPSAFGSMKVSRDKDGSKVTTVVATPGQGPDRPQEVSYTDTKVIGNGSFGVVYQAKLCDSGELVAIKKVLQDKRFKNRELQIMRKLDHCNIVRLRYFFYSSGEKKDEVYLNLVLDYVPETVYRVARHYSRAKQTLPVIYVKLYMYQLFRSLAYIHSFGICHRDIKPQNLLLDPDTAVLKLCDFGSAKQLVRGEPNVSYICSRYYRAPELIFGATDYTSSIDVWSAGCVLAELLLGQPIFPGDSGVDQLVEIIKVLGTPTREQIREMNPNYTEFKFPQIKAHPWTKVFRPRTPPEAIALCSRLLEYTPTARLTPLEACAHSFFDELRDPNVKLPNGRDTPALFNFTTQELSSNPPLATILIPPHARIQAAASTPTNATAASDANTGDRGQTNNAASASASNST
Sequence of Serine/threonine-protein kinase Chk1 (Homo sapiens) (O14757 whole entry): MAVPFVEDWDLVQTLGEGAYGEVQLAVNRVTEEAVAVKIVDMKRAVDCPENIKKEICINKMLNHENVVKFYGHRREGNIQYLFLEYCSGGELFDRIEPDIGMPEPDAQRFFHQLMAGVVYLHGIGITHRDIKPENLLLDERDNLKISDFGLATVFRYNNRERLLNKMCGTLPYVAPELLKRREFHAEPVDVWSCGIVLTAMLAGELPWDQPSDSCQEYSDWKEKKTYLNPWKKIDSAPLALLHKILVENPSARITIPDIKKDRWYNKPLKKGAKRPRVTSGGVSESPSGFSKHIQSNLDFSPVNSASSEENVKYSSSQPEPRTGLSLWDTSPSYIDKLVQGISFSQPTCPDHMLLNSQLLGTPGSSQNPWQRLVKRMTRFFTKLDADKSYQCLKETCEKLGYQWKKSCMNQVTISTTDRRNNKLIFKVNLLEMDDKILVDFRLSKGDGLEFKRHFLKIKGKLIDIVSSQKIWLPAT
Sequence of RAC-alpha serine/threonine-protein kinase (Homo sapiens) (P31749 whole entry, canonical isoform): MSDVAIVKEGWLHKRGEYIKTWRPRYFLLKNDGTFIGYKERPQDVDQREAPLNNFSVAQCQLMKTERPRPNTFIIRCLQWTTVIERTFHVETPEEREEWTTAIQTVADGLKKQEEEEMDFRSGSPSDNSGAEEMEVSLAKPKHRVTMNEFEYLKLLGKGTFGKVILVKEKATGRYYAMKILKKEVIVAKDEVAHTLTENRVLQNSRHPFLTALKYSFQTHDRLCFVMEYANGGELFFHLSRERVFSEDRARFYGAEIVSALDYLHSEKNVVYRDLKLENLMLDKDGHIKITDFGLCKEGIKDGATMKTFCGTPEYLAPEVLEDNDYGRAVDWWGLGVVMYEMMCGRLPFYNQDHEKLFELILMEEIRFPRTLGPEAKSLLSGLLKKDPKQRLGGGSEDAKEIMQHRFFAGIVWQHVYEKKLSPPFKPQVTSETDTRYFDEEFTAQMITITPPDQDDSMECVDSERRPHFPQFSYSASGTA
Sequence of Mitogen-activated protein kinase 1 (Homo sapiens) (P28482 whole entry): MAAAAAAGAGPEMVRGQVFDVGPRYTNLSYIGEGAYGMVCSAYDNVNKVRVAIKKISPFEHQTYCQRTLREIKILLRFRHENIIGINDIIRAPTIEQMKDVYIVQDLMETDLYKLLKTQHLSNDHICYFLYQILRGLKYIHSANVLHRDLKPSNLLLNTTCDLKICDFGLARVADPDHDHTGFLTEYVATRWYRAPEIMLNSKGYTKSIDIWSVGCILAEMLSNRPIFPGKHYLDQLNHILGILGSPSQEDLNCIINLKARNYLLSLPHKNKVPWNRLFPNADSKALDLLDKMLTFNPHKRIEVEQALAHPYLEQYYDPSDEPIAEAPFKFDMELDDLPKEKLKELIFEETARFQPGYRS

## CC[C@@H](C)Nc1nc2ccc(-c3ocnc3-c3ccccc3F)cc2s1
[1]
  IC50: 6.5 nM
PBMC
  IC50: 27 nM

## CC[C@@H](C)Nc1nc2ccc(-c3c(-c4ccccc4F)nn(CC)c3N)cc2s1
[1]
  IC50: 17 nM
PBMC
  IC50: > 250 nM

## Cc1cccc(-n2nccc2-c2ccc3nc(NC(C)C)sc3c2)c1
[1]
  IC50: 33 nM
PBMC
  IC50: 171 nM

## CC[C@H](C)Nc1nc2ccc(-c3ocnc3-c3ccccc3F)cc2s1
[1]
  IC50: 10 nM
PBMC
  IC50: 30 nM

## Fc1ccccc1-c1ncoc1-c1ccc2ncsc2c1
[1]
  IC50: 47 nM
PBMC
  IC50: > 250 nM

## CC(C)Nc1nc2ccc(-c3ccnn3-c3cccc(Cl)c3)cc2s1
[1]
  IC50: 72 nM
PBMC
  IC50: 232 nM

## CC[C@@H](C)Nc1nc2ccc(-c3c(-c4ccccc4F)nn(C)c3N)cc2s1
[1]
  IC50: 11 nM
PBMC
  IC50: 118 nM

## CC(C)Nc1nc2ccc(-c3ccnn3-c3ccccc3Cl)cc2s1
[1]
  IC50: 175 nM

## CC[C@@H](C)Nc1nc2ccc(-c3c(-c4ccccc4F)n[nH]c3N)cc2s1
[2]
  inhibition: < 20%
[3]
  clearance: 23.3 mL/min/kg
[4]
  inhibition: < 20%
[5]
  inhibition: < 20%
[6]
  inhibition: < 20%
[7]
  inhibition: < 20%
[8]
  inhibition: 65%
[9]
  inhibition: < 20%
[10]
  inhibition: < 20%
[11]
  inhibition: < 20%
[12]
  inhibition: < 20%
[13]
  inhibition: < 20%
[14]
  inhibition: < 20%
[15]
  inhibition: < 20%
[16]
  inhibition: < 20%
[17]
  inhibition: < 20%
[1]
  IC50: 3.2 nM
[18]
  inhibition: < 20%
[19]
  inhibition: < 20%
[20]
  inhibition: < 20%
[21]
  inhibition: < 20%
[22]
  inhibition: < 20%
[23]
  inhibition: < 20%
[24]
  inhibition: < 20%
[25]
  inhibition: < 20%
[26]
  inhibition: < 20%
[27]
  inhibition: < 20%
[28]
  inhibition: < 20%
[29]
  inhibition: < 20%
[30]
  inhibition: < 20%
[31]
  inhibition: < 20%
[32]
  inhibition: < 20%
[33]
  inhibition: < 20%
[34]
  inhibition: 68%
[35]
  inhibition: < 20%
PBMC
  IC50: 39 nM
[36]
  inhibition: < 20%
[37]
  inhibition: 54%
[38]
  inhibition: < 20%
[39]
  inhibition: < 20%
[40]
  inhibition: < 20%
[41]
  inhibition: < 20%
[42]
  inhibition: < 20%
[43]
  inhibition: < 20%
[44]
  inhibition: < 20%
[45]
  inhibition: < 20%
[46]
  inhibition: < 20%
[47]
  inhibition: < 20%
[48]
  half-life: 1.7 h
[49]
  inhibition: < 20%
[50]
  inhibition: < 20%
[51]
  inhibition: < 20%
[52]
  AUC: 2.27 µM·h
[53]
  bioavailability: 24%
[54]
  inhibition: < 20%
[55]
  inhibition: < 20%
[56]
  inhibition: < 20%

## CCNc1nc2ccc(-c3ocnc3-c3ccccc3F)cc2s1
[1]
  IC50: 12 nM
PBMC
  IC50: 167 nM

## Cc1ccccc1-n1nccc1-c1ccc2nc(NC(C)C)sc2c1
[1]
  IC50: 146 nM

## CC(C)Nc1nc2ccc(-c3ocnc3-c3ccccc3F)cc2s1
PBMC
  IC50: 40 nM

## CC(C)Nc1nc2ccc(-c3[nH]cnc3-c3ccccc3F)cc2s1
[1]
  IC50: 3.3 nM
PBMC
  IC50: 35 nM

## CC(C)Nc1nc2ccc(-c3ccnn3-c3ccccc3)cc2s1
[1]
  IC50: 21 nM
PBMC
  IC50: 213 nM

## CC(C)Nc1nc2ccc(-c3ocnc3-c3ccccc3)cc2s1
[1]
  IC50: 21 nM
PBMC
  IC50: 96 nM

## Nc1nc2ccc(-c3ocnc3-c3ccccc3F)cc2s1
[1]
  IC50: 16 nM
PBMC
  IC50: 247 nM

## CC(C)Nc1nc2ccc(-c3ccnn3-c3ccc(Cl)cc3)cc2s1
[1]
  IC50: > 1000 nM

## CC(C)Nc1nc2ccc(-c3ccnn3-c3cccc(F)c3)cc2s1
[1]
  IC50: 33 nM
PBMC
  IC50: 171 nM

## CC(C)Nc1nc2ccc(-c3ccnn3-c3ccc(F)cc3)cc2s1
[1]
  IC50: 48 nM
PBMC
  IC50: > 250 nM

## CC(C)Nc1nc2ccc(-c3ccnn3-c3ccccc3F)cc2s1
[1]
  IC50: 20 nM
PBMC
  IC50: 249 nM

## CC(C)Nc1nc2ccc(-c3c(-c4ccccc4F)n[nH]c3N)cc2s1
[1]
  IC50: 3.7 nM
PBMC
  IC50: 51 nM

## Cc1ccc(-n2nccc2-c2ccc3nc(NC(C)C)sc3c2)cc1
[1]
  IC50: > 1000 nM

## CC[C@H](C)Nc1nc2ccc(-c3c(-c4ccccc4F)n[nH]c3N)cc2s1
[1]
  IC50: 5.5 nM
PBMC
  IC50: 77 nM

## CC[C@H](C)Nc1nc2ccc(-c3[nH]cnc3-c3ccccc3F)cc2s1
[1]
  IC50: 2.7 nM
PBMC
  IC50: 20 nM

## CC[C@@H](C)Nc1nc2ccc(-c3[nH]cnc3-c3ccccc3F)cc2s1
[1]
  IC50: 1.6 nM
PBMC
  IC50: 13 nM

## CC(C)Nc1nc2ccc(-c3[nH]cnc3-c3ccccc3)cc2s1
[1]
  IC50: 7.1 nM
PBMC
  IC50: 107 nM
